Laboratory results published in the NIST ThermoML archive (doi:10.1016/j.fluid.2014.09.015).
± gives the expanded uncertainty stated by the source.

Conditions: Liquid, Closed cell (Static) method

CC(O)CO (stereo not given) [1,2-propanediol]
vapor or sublimation pressure (350.15 K): 0.84 ± 0.023 kPa | vapor or sublimation pressure (355.15 K): 1.131 ± 0.031 kPa | vapor or sublimation pressure (360.15 K): 1.506 ± 0.037 kPa | vapor or sublimation pressure (365.15 K): 1.987 ± 0.045 kPa | vapor or sublimation pressure (370.15 K): 2.596 ± 0.049 kPa | vapor or sublimation pressure (375.15 K): 3.361 ± 0.031 kPa | vapor or sublimation pressure (380.15 K): 4.316 ± 0.039 kPa | vapor or sublimation pressure (385.15 K): 5.496 ± 0.047 kPa | vapor or sublimation pressure (390.15 K): 6.946 ± 0.051 kPa | vapor or sublimation pressure (395.15 K): 8.715 ± 0.052 kPa | vapor or sublimation pressure (400.15 K): 10.86 ± 0.067 kPa | vapor or sublimation pressure (405.15 K): 13.44 ± 0.074 kPa | vapor or sublimation pressure (410.15 K): 16.53 ± 0.062 kPa | vapor or sublimation pressure (415.15 K): 20.22 ± 0.068 kPa | vapor or sublimation pressure (420.15 K): 24.59 ± 0.082 kPa
